Experiments:
Type in all cases: in vivo
[1] = test system: blackgrass (Alopecurus myosuroides); assay: Test A preemergence soil spray, visual injury rating 0-100; conditions: 10 days, 0 = no effect, 100 = complete control
Outline: (§1)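 Greenhouse test: loam/sand pots received a surfactant-containing formulation, as a preemergence directed soil spray or a postemergence spray on young plants. Injury was judged visually at day 10 relative to untreated controls.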

[2] = test system: barnyardgrass (Echinochloa crus-galli); assay: as above; conditions: 10 days, 0 = no effect, 100 = complete control
Outline: as §1

kochia (Bassia scoparia) [3] = assay: as above; conditions: 10 days, 0 = no effect, 100 = complete control
Outline: as §1

[4] = test system: ryegrass, Italian (italian ryegrass, Lolium multiflorum); assay: as above; conditions: 10 days, 0 = no effect, 100 = complete control
Outline: as §1

[5] = test system: ragweed (common ragweed, Ambrosia artemisiifolia); assay: as above; conditions: 10 days, 0 = no effect, 100 = complete control
Outline: as §1

[6] = test system: foxtail, giant (giant foxtail, Setaria faberi); assay: as above; conditions: 10 days, 0 = no effect, 100 = complete control
Outline: as §1

[7] = test system: palmer (palmer amaranth, palmer pigweed, Amaranthus palmeri); assay: as above; conditions: 10 days, 0 = no effect, 100 = complete control
Outline: as §1

rice (Oryza sativa) = assay: Test B flooded paddy test, visual plant response rating 0-100; conditions: 250 g ai/ha, Flood, applied to paddy water, evaluated after 13 days
Outline: (§2)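 Compounds applied to standing paddy water (3 cm above soil, maintained for the test duration) on 2-leaf-stage plants; visual rating vs controls at 13 days, greenhouse.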

[8] = test system: ducksalad (Heteranthera limosa); assay: as above; conditions: 250 g ai/ha, Flood, applied to paddy water, evaluated after 13 days
Outline: as §2

[9] = test system: barnyardgrass (Echinochloa crusgalli); assay: as above; conditions: 250 g ai/ha, Flood, applied to paddy water, evaluated after 13 days
Outline: as §2

[10] = test system: sedge, umbrella (small-flower umbrella sedge, Cyperus difformis); assay: as above; conditions: 250 g ai/ha, Flood, applied to paddy water, evaluated after 13 days
Outline: as §2

[11] = test system: blackgrass (Alopecurus myosuroides); assay: Test A postemergence application, visual injury rating 0-100; conditions: Postemergence, 10 days; for Blackgrass plant response rating (0 to 100 scale): 0 is no effect, 100 is complete control
Outline: as §1

[12] = test system: barnyardgrass (Echinochloa crus-galli); assay: as above; conditions: Postemergence, 10 days; for Barnyardgrass plant response rating (0 to 100 scale): 0 is no effect, 100 is complete control
Outline: as §1

kochia (Bassia scoparia) [13] = assay: as above; conditions: Postemergence, 10 days; for Kochia plant response rating (0 to 100 scale): 0 is no effect, 100 is complete control
Outline: as §1

[14] = test system: galium (catchweed bedstraw, Galium aparine); assay: as above; conditions: Postemergence, 10 days; for Galium plant response rating (0 to 100 scale): 0 is no effect, 100 is complete control
Outline: as §1

[15] = test system: ryegrass, Italian (italian ryegrass, Lolium multiflorum); assay: as above; conditions: Postemergence, 10 days; for Ryegrass, Italian plant response rating (0 to 100 scale): 0 is no effect, 100 is complete control
Outline: as §1

[16] = test system: ragweed (common ragweed, Ambrosia artemisiifolia); assay: as above; conditions: Postemergence, 10 days; for Ragweed plant response rating (0 to 100 scale): 0 is no effect, 100 is complete control
Outline: as §1

[17] = test system: foxtail, giant (giant foxtail, Setaria faberi); assay: as above; conditions: 10 days; for Foxtail, Giant plant response rating (0 to 100 scale): 0 is no effect, 100 is complete control
Outline: as §1

[18] = test system: palmer (palmer amaranth, palmer pigweed, Amaranthus palmeri); assay: as above; conditions: Postemergence, 10 days; for Amaranth, Palmer / Pigweed, Palmer plant response rating (0 to 100 scale): 0 is no effect, 100 is complete control
Outline: as §1

[19] = test system: horseweed (Erigeron canadensis); assay: as above; conditions: Postemergence, 10 days; for Horseweed plant response rating (0 to 100 scale): 0 is no effect, 100 is complete control
Outline: as §1

[20] = test system: wheat (Triticum aestivum); assay: Test A preemergence soil spray, visual injury rating 0-100; conditions: 10 days, 0 = no effect, 100 = complete control
Outline: as §1

[21] = test system: oat, wild (wild oat, Avena fatua); assay: as above; conditions: 10 days, 0 = no effect, 100 = complete control
Outline: as §1

soybean (Glycine max) [22] = assay: as above; conditions: 10 days, 0 = no effect, 100 = complete control
Outline: as §1

corn (Zea mays) [23] = assay: as above; conditions: 10 days, 0 = no effect, 100 = complete control
Outline: as §1

[24] = test system: wheat (Triticum aestivum); assay: Test A postemergence application, visual injury rating 0-100; conditions: Postemergence, 10 days, 0 is no effect, 100 is complete control
Outline: as §1

[25] = test system: oat, wild (wild oat, Avena fatua); assay: as above; conditions: Postemergence, 10 days, 0 is no effect, 100 is complete control
Outline: as §1

soybean (Glycine max) [26] = assay: as above; conditions: Postemergence, 10 days, 0 is no effect, 100 is complete control
Outline: as §1

corn (Zea mays) [27] = assay: as above; conditions: Postemergence, 10 days, 0 is no effect, 100 is complete control
Outline: as §1

SMILES: CSCCOC(=O)[C@@H]1C=C[C@H](NC(=O)C2(C)CN(c3cc(F)cc(F)c3)C(=O)O2)C1 (stereo partly drawn) [Compound 48, 2-(Methylthio)ethyl (1S,4R)-4-[[[3-(3,5-difluorophenyl)-5-methyl-2-oxo-5-oxazolidinyl]carbonyl]amino]-2-cyclopentene-1-carboxylate]
- Blackgrass plant response rating (0 to 100 scale) ([1]; 1000 g ai/ha): 90
- Barnyardgrass plant response rating (0 to 100 scale) ([2]; 1000 g ai/ha): 100
- Kochia plant response rating (0 to 100 scale) (kochia (Bassia scoparia) [3]; 1000 g ai/ha): 100
- Ryegrass, Italian plant response rating (0 to 100 scale) ([4]; 1000 g ai/ha): 100
- Ragweed plant response rating (0 to 100 scale) ([5]; 1000 g ai/ha): 90
- Foxtail, Giant plant response rating (0 to 100 scale) ([6]; 1000 g ai/ha): 100
- Amaranth, Palmer / Pigweed, Palmer plant response rating (0 to 100 scale) ([7]; 1000 g ai/ha): 100
- Plant response rating, Rice (0 to 100 scale, 0 is no effect and 100 is complete control) (rice (Oryza sativa)): 65
- Plant response rating, Ducksalad (0 to 100 scale, 0 is no effect and 100 is complete control) [8]: 70
- Plant response rating, Barnyardgrass (0 to 100 scale, 0 is no effect and 100 is complete control) [9]: 70
- Plant response rating, Sedge, Umbrella (0 to 100 scale, 0 is no effect and 100 is complete control) [10]: 80
- Blackgrass plant response rating ([11]; 1000 g ai/ha, 0 to 100 scale): 100
- Barnyardgrass plant response rating ([12]; 1000 g ai/ha, 0 to 100 scale): 90
- Kochia plant response rating (kochia (Bassia scoparia) [13]; 1000 g ai/ha, 0 to 100 scale): 70
- Galium plant response rating ([14]; 1000 g ai/ha, 0 to 100 scale): 80
- Ryegrass, Italian plant response rating ([15]; 1000 g ai/ha, 0 to 100 scale): 90
- Ragweed plant response rating ([16]; 1000 g ai/ha, 0 to 100 scale): 70
- Foxtail, Giant plant response rating ([17]; 1000 g ai/ha, 0 to 100 scale): 90
- Amaranth, Palmer plant response rating ([18]; 1000 g ai/ha, 0 to 100 scale): 90
- Horseweed plant response rating ([19]; 1000 g ai/ha, 0 to 100 scale): 70

SMILES: CC1(C(=O)N[C@H]2C=C[C@@H](C(=O)O)C2)CN(c2cc(F)cc(F)c2)C(=O)O1 (stereo partly drawn) [Compound 51, (1S,4R)-4-[[[3-(3,5-Difluorophenyl)-5-methyl-2-oxo-5-oxazolidinyl]carbonyl]amino]-2-cyclopentene-1-carboxylic acid]
- Blackgrass plant response rating (0 to 100 scale) ([1]; 125 g ai/ha): 80
- Blackgrass plant response rating (0 to 100 scale) ([1]; 500 g ai/ha): 90
- Wheat plant response rating (0 to 100 scale) ([20]; 125 g ai/ha): 100
- Wheat plant response rating (0 to 100 scale) ([20]; 500 g ai/ha): 100
- Oat, Wild plant response rating (0 to 100 scale) ([21]; 125 g ai/ha): 90
- Oat, Wild plant response rating (0 to 100 scale) ([21]; 500 g ai/ha): 90
- Barnyardgrass plant response rating (0 to 100 scale) ([2]; 125 g ai/ha): 100
- Barnyardgrass plant response rating (0 to 100 scale) ([2]; 500 g ai/ha): 100
- Soybean plant response rating (0 to 100 scale) (soybean (Glycine max) [22]; 125 g ai/ha): 70
- Soybean plant response rating (0 to 100 scale) (soybean (Glycine max) [22]; 500 g ai/ha): 100
- Kochia plant response rating (0 to 100 scale) (kochia (Bassia scoparia) [3]; 125 g ai/ha): 90
- Kochia plant response rating (0 to 100 scale) (kochia (Bassia scoparia) [3]; 500 g ai/ha): 100
- Corn plant response rating (0 to 100 scale) (corn (Zea mays) [23]; 125 g ai/ha): 90
- Corn plant response rating (0 to 100 scale) (corn (Zea mays) [23]; 500 g ai/ha): 90
- Ryegrass, Italian plant response rating (0 to 100 scale) ([4]; 125 g ai/ha): 90
- Ryegrass, Italian plant response rating (0 to 100 scale) ([4]; 500 g ai/ha): 100
- Ragweed plant response rating (0 to 100 scale) ([5]; 125 g ai/ha): 70
- Ragweed plant response rating (0 to 100 scale) ([5]; 500 g ai/ha): 80
- Foxtail, Giant plant response rating (0 to 100 scale) ([6]; 125 g ai/ha): 90
- Foxtail, Giant plant response rating (0 to 100 scale) ([6]; 500 g ai/ha): 100
- Amaranth, Palmer plant response rating (0 to 100 scale) ([7]; 125 g ai/ha): 90
- Amaranth, Palmer plant response rating (0 to 100 scale) ([7]; 500 g ai/ha): 100
- Plant response rating, Rice (0 to 100 scale, 0 is no effect and 100 is complete control) (rice (Oryza sativa)): 60
- Plant response rating, Ducksalad (0 to 100 scale, 0 is no effect and 100 is complete control) [8]: 60
- Plant response rating, Barnyardgrass (0 to 100 scale, 0 is no effect and 100 is complete control) [9]: 75
- Plant response rating, Sedge, Umbrella (0 to 100 scale, 0 is no effect and 100 is complete control) [10]: 60
- Blackgrass plant response rating (0 to 100 scale) ([11]; 125 g ai/ha): 90
- Blackgrass plant response rating (0 to 100 scale) ([11]; 500 g ai/ha): 100
- Wheat plant response rating (0 to 100 scale) ([24]; 125 g ai/ha): 90
- Wheat plant response rating (0 to 100 scale) ([24]; 500 g ai/ha): 90
- Oat, Wild plant response rating (0 to 100 scale) ([25]; 125 g ai/ha): 90
- Oat, Wild plant response rating (0 to 100 scale) ([25]; 500 g ai/ha): 90
- Barnyardgrass plant response rating (0 to 100 scale) ([12]; 125 g ai/ha): 100
- Barnyardgrass plant response rating (0 to 100 scale) ([12]; 500 g ai/ha): 100
- Soybean plant response rating (0 to 100 scale) (soybean (Glycine max) [26]; 125 g ai/ha): 70
- Soybean plant response rating (0 to 100 scale) (soybean (Glycine max) [26]; 500 g ai/ha): 100
- Kochia plant response rating (0 to 100 scale) (kochia (Bassia scoparia) [13]; 125 g ai/ha): 80
- Kochia plant response rating (0 to 100 scale) (kochia (Bassia scoparia) [13]; 500 g ai/ha): 80
- Corn plant response rating (0 to 100 scale) (corn (Zea mays) [27]; 125 g ai/ha): 90
- Corn plant response rating (0 to 100 scale) (corn (Zea mays) [27]; 500 g ai/ha): 90
- Galium plant response rating (0 to 100 scale) ([14]; 125 g ai/ha): 70
- Galium plant response rating (0 to 100 scale) ([14]; 500 g ai/ha): 70
- Ryegrass, Italian plant response rating (0 to 100 scale) ([15]; 125 g ai/ha): 70
- Ryegrass, Italian plant response rating (0 to 100 scale) ([15]; 500 g ai/ha): 70
- Ragweed plant response rating (0 to 100 scale) ([16]; 125 g ai/ha): 60
- Ragweed plant response rating (0 to 100 scale) ([16]; 500 g ai/ha): 70
- Foxtail, Giant plant response rating (0 to 100 scale) ([17]; 125 g ai/ha): 90
- Foxtail, Giant plant response rating (0 to 100 scale) ([17]; 500 g ai/ha): 90
- Amaranth, Palmer / Pigweed, Palmer plant response rating (0 to 100 scale) ([18]; 125 g ai/ha): 90
- Amaranth, Palmer / Pigweed, Palmer plant response rating (0 to 100 scale) ([18]; 500 g ai/ha): 90
- Horseweed plant response rating (0 to 100 scale) ([19]; 125 g ai/ha): 80
- Horseweed plant response rating (0 to 100 scale) ([19]; 500 g ai/ha): 100

— US20260285850A1, “SUBSTITUTED OXAZOLIDINONES AND IMIDAZOLINONES AS HERBICIDES” (FMC CORPORATION, priority 2023, published 2026)
